These results are taken from patent US11173162B2, “Bicyclic heterocycles as FGFR4 inhibitors” (Incyte Corporation, priority 2015, dated 2021).

For this assay, the system named is FGFR3 enzyme. Briefly: FGFR Enzymatic Assay (FRET peptide phosphorylation), FGFR3. The format is biochemical. The following applies: IC50 ratio showing FGFR3 selectivity; Table 2A, pre-incubated for 4 hours. Here is the method:
The inhibitor potency of the exemplified compounds was measured in an enzyme assay that measures peptide phosphorylation using FRET measurements to detect product formation. Inhibitors were serially diluted in DMSO and a volume of 0.5 μL was transferred to the wells of a 384-well plate.
GraphPad prism3 was used to analyze the data.
Regarding `CNC(=O)c1ccc(CN2C(=O)N(c3c(F)c(OC)cc(OC)c3F)Cc3cnc(-c4cn(C)nc4C)cc32)cc1` [Example 62, 4-((3-(2,6-difluoro-3,5-dimethoxyphenyl)-7-(1,3-dimethyl-1H-pyrazol-4-yl)-2-oxo-3,4-dihydropyrido[4,3-d]pyrimidin-1(2H)-yl)methyl)-N-methylbenzamide], the FGFR1/FGFR3 is greater than 10 and the FGFR4/FGFR3 is reported as greater than 5.

`COc1ccc(N2C(=O)N(c3c(F)c(OC)cc(OC)c3F)Cc3cnc(-c4cn(C)nc4C)cc32)cc1` [Example 104, 3-(2,6-difluoro-3,5-dimethoxyphenyl)-7-(1,3-dimethyl-1H-pyrazol-4-yl)-1-(4-methoxyphenyl)-3,4-dihydropyrido[4,3-d]pyrimidin-2(1H)-one]: the FGFR1/FGFR3 is listed as greater than 3 and the FGFR4/FGFR3 is greater than 5.

On to `COc1cc(OC)c(F)c(N2Cc3cnc(-c4cnn(CCN5CCOCC5)c4)cc3C3(CC3)C2=O)c1F` [Example 157, 2′-(2,6-difluoro-3,5-dimethoxyphenyl)-6′-(1-(2-morpholinoethyl)-1H-pyrazol-4-yl)-1′H-spiro[cyclopropane-1,4′-[2,7]naphthyridin]-3′(2′H)-one], for which the FGFR1/FGFR3 is greater than 5 and the FGFR4/FGFR3 is on record as greater than 3.

Regarding `COc1cc(OC)c(F)c(N2Cc3cnc(-c4cn(C)nc4C)cc3N(c3cnc(C)cn3)C2=O)c1F` [Example 107, 3-(2,6-difluoro-3,5-dimethoxyphenyl)-7-(1,3-dimethyl-1H-pyrazol-4-yl)-1-(5-methylpyrazin-2-yl)-3,4-dihydropyrido[4,3-d]pyrimidin-2(1H)-one], the FGFR1/FGFR3 is listed as greater than 3 and the FGFR4/FGFR3 is on record as greater than 10.

Turning to `COc1cc(OC)c(F)c(N2Cc3cnc(-c4cn(C)nc4C)cc3N(c3cn[nH]c3)C2=O)c1F` [Example 129, 3-(2,6-difluoro-3,5-dimethoxyphenyl)-7-(1,3-dimethyl-1H-pyrazol-4-yl)-1-(1H-pyrazol-4-yl)-3,4-dihydropyrido[4,3-d]pyrimidin-2(1H)-one], the FGFR1/FGFR3 is greater than 5 and the FGFR4/FGFR3 was greater than 10.

In the case of `CCn1cc(CN2C(=O)N(c3c(F)c(OC)cc(OC)c3F)Cc3cnc(-c4cn(C)nc4C)cc32)cn1` [Example 39, 3-(2,6-difluoro-3,5-dimethoxyphenyl)-7-(1,3-dimethyl-1H-pyrazol-4-yl)-1-((1-ethyl-1H-pyrazol-4-yl)methyl)-3,4-dihydropyrido[4,3-d]pyrimidin-2(1H)-one], the FGFR1/FGFR3 was greater than 10 and the FGFR4/FGFR3 is recorded as greater than 10.

As for `COc1cc(OC)c(F)c(N2Cc3cnc(-c4cnn(C5CCN(C(C)=O)C5)c4)cc3C3(CC3)C2=O)c1F` (stereo not drawn) [Example 150, 6′-(1-(1-acetylpyrrolidin-3-yl)-1H-pyrazol-4-yl)-2′-(2,6-difluoro-3,5-dimethoxyphenyl)-1′H-spiro[cyclopropane-1,4′-[2,7]naphthyridin]-3′(2′H)-one], the FGFR1/FGFR3 is on record as greater than 5 and the FGFR4/FGFR3 is on record as greater than 5.

Take `COc1cc(OC)c(F)c(N2Cc3cnc(-c4cn(C)nc4C)cc3N(C3CCN(C(C)=O)CC3)C2=O)c1F` [Example 43, 1-(1-acetylpiperidin-4-yl)-3-(2,6-difluoro-3,5-dimethoxyphenyl)-7-(1,3-dimethyl-1H-pyrazol-4-yl)-3,4-dihydropyrido[4,3-d]pyrimidin-2(1H)-one]: the FGFR1/FGFR3 is listed as greater than 10 and the FGFR4/FGFR3 is on record as greater than 5.

Take `CCc1cc(CN2C(=O)N(c3c(F)c(OC)cc(OC)c3F)Cc3cnc(-c4cn(C)nc4C)cc32)no1` [Example 64, 3-(2,6-difluoro-3,5-dimethoxyphenyl)-7-(1,3-dimethyl-1H-pyrazol-4-yl)-1-((5-ethylisoxazol-3-yl)methyl)-3,4-dihydropyrido[4,3-d]pyrimidin-2(1H)-one]: the FGFR1/FGFR3 is given as greater than 10 and the FGFR4/FGFR3 is recorded as greater than 10.
